From article PMC4887995, “Small molecule dual-inhibitors of TRPV4 and TRPA1 for attenuation of inflammation and pain” (Scientific Reports, 2016)
Entries after “also recorded” stand apart in the source; their conditions may differ.

Columns and labels:
TRPV4 [1] = target: T1, TRPV4 (Rattus norvegicus, UniProt Q9ERZ8); conditions: for inhibition of TRPV4-mediated Ca++ influx / average peak ∆Ca++ concentration: 5 μM inhibitor, GSK101 5 nM; for average peak ∆Ca++ concentration: ≈100 cells, vehicle control 1156; for increased potency over GSK205: from TRPV4 IC50 values
T1 sequence (Q9ERZ8 whole entry): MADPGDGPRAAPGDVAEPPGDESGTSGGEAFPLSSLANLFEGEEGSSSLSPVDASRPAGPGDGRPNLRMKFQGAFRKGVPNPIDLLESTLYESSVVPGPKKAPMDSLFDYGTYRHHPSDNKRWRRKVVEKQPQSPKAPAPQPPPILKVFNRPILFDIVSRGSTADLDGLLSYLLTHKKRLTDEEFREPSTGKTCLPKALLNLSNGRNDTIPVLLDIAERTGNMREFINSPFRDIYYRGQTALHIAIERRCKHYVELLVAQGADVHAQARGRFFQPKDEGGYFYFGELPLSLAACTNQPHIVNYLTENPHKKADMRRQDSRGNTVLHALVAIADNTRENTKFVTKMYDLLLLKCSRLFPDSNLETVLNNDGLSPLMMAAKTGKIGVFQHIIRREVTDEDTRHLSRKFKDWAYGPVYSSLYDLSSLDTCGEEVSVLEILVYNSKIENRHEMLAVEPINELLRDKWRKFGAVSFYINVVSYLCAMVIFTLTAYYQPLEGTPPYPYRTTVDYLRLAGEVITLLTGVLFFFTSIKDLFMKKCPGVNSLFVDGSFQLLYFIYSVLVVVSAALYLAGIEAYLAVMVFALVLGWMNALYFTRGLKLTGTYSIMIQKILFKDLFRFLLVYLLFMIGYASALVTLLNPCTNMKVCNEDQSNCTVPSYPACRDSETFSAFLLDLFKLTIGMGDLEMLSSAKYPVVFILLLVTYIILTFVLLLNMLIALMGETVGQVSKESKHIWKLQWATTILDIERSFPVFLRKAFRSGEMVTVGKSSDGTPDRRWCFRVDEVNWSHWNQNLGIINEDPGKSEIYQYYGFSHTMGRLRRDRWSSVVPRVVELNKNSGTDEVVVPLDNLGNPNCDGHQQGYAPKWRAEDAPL
Experimental: We assessed TRPV4-inhibitory potency of these synthetic compounds in a Ca^++ imaging assay in neuronal 2a (N2a) permanent tissue culture cells with directed expression of mammalian (rat) TRPV4. […] For first round assessment, all TRPV4-inhibitory compounds were used at 5 μM (Fig. 2A).
(A) Ca^++ imaging screening of all compounds in N2A cells with directed expression of TRPV4 (rat). […] The number on each bar corresponds to average peak ∆Ca^++ concentrations in ≈100 cells. Inset: micrographs of pseudo-colored cells before and after activation with 5nM GSK101, in addition note the corresponding time course of the averaged Ca^++ signal (fura-2 Ca^++ imaging). […] Plot generated from averaged peak ∆Ca^++ concentration of ≥75 cells per data-point.
TRPV4-eGFP from rat was used, previously found to respond to stimulation with GSK101 and hypotonicity in similar manner as native, non-fused TRPV4.

[2] = system: caerulein-evoked acute pancreatitis; assay: Caerulein-induced acute pancreatitis mouse model; type: in vivo; conditions: 10 mg/kg i.p., 30 min before caerulein
Experimental: C57BL/6J male mice 8–10 weeks of age were subjected to acute pancreatitis by intraperitoneal injections of supramaximal doses of caerulein (50 μg/kg) every hour for a total of 6 h, as previously described in[61]. Control animals received 25% DMSO-saline solution by intraperitoneal injection every hour for 6 h. Compound 16-8 was dissolved in this vehicle (10 mg/kg) and injected i.p. 30 min prior to the first injection of caerulein. Animals were sacrificed 1 h after the last injection. Blood was collected and pancreatic tissue was promptly isolated, weighed for determination of pancreas wet weight/body weight ratio. Samples of tissues were fixed overnight in 10% neutral-buffered formalin, paraffin embedded and H&E-stained, or pancreatic tissue was quickly frozen and assessed for myeloperoxidase (MPO) activity. Serum amylase, MPO and histologic evaluation were conducted as described previously. Assessment of nocifensive behavior[8]: Mice were housed in individual cages and video-recorded during the entire experiment. Two mice at a time were observed. Linear movement was measured as one event when mice passed through the median plane of the cage. Analysis began immediately after the first caerulein/vehicle injection and continued until the end of the experiment. Results were expressed as the sum of the movement events spanning the 6 h time-period following the first injection.

TRPV4 [3] = target: T2, TRPV4 (Sus scrofa, UniProt B3VP30); assay: Ca++ imaging in primary articular chondrocytes, GSK101 stimulation; type: cell-based, pig; conditions: GSK101 5 nM
T2 construct: primary cells, which express functional and biologically-relevant TRPV4 without directed over-expression of the channel; endogenous in cells; host or cells: primary porcine articular chondrocytes (femoral condyles)
T2 sequence (B3VP30 1-871): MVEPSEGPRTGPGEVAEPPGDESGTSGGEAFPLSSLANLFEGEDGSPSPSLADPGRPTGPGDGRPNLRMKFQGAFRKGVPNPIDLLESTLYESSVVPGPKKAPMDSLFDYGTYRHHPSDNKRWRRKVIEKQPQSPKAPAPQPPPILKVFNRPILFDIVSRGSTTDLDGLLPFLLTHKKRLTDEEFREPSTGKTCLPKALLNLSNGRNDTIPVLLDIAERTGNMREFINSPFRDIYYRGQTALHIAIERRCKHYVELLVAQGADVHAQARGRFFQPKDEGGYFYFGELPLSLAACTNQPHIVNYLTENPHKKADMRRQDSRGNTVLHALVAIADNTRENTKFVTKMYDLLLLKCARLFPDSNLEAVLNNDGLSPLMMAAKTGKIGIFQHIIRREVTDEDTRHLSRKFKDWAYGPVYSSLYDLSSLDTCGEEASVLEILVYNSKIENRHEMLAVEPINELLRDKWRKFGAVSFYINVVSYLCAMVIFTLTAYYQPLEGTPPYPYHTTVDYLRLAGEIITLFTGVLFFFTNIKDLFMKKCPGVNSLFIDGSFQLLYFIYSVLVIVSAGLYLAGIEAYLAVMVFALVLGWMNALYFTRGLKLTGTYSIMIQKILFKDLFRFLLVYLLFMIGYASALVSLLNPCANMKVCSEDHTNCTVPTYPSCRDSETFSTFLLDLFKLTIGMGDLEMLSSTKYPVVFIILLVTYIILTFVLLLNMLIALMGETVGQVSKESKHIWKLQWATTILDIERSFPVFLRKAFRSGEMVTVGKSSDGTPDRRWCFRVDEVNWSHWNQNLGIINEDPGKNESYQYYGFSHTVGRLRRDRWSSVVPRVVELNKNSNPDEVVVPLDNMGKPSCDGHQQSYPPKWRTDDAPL
Experimental: (§1) Figure 4 Compound 16-8 inhibits TRPV4 in I˚ cells more potently than GSK205. […] Inset: Chondrocytes responding to activation with GSK101, fura-2 Ca^++ imaging; right-hand image taken at 5 sec after GSK101 application. […] (B) I˚ astrocytes (rat); dose-response comparison between 16-8 and GSK205 in response to 5 nM GSK101. Inset: Astrocytes responding to activation with GSK101; right-hand image taken at 5 sec after GSK101 application (mean ± SEM, n = 5 independent expts, n ≥ 200 cells/expt; *p < 0.05, t-test).
Primary porcine chondrocytes derived from femoral condyles of skeletally mature pigs were cultured and subjected to Ca^++ imaging as described previously.

[4] = system: formalin-evoked trigeminal irritant pain; assay: Trigeminal formalin irritant pain model, WT mice; type: in vivo, mouse; conditions: 10 mg/kg i.p.; for pain behavior, delayed (late neural) phase: 15 min before 4% formalin, 15–45 min
Experimental: Figure 7 16-8 and 16-19 effectively attenuate formalin-evoked trigeminal irritant pain. (A) Time-course of nocifensive behavior in WT mice following whisker-pad injection of 4% formalin. The mice were pre-injected (i.p., 10 mg/kg; 15 min before formalin) with GSK205, 16-8 or 16-19. Note effective reduction of nocifensive behavior in the late “neural” phase by compounds 16-8, 16-19, not by GSK205. (B) Cumulative response binned into 3 phases: acute phase (0–5 min), interphase (5–15 min), and late “neural” phase (15–45 min). […] (C) As in (A), but also including Trpv4^−/− mice. Compounds were applied i.p. 15 min before formalin challenge, at 10 mg/kg except established TRPA1 blocker, A967079 (25 mg/kg). Previously-established attenuated nocifensive behavior in early and late phase in Trpv4^−/− mice was recapped, which was reduced further by TRPA1 blocker, A967079. (D) As in (B), plus inclusion of Trpv4^−/− mice. Robust effects of TRPA1-blocker, A967079, were mimicked equi-potently by 16-8 and 16-19 for early phase, and by 16-8 for late phase, partially by 16-19 for late phase. (A,C) show averaged behavioral metrics per time-point, bars in (B,D) represent mean ± SEM; for (D) ^*P < 0.05; ^#P < 0.005, one-way ANOVA; for all panels n = 5–8 mice/group. Implementation of this model was conducted as described previously. Video-taped nocifensive behavior was assessed by investigators blinded to genotype and treatment.

TRPV4 [5] = target: T1, TRPV4; assay: Ca++ imaging in primary astrocytes, GSK101 stimulation; type: cell-based; conditions: GSK101 5 nM
Experimental: as §1
Astrocyte cultures were conducted following established protocols. Astrocytes were prepared from Sprague Dawley rat embryos (E18). Briefly, the isolated cortices were minced, and then incubated with trypsin and DNase. Dissociated cells were suspended in Dulbeccco’s Modified Eagle’s Medium (DMEM) supplemented with 10% fetal calf serum and penicillin/streptomycin (100 U/ml and 100 μg/ml, respectively). Thereafter, cell suspensions were plated in 75 cm^2 tissue culture flasks (10 × 10^6 cells/flask) which were pre-coated with poly-L-lysine (10 μg/ml). The cells were maintained in a 10%CO2 incubator at 37 °C.

[6] = Preliminary in-vivo cardiac, renal and hepatic toxicity; set-up: species or system mouse; conditions: 10 mg/kg i.p., vs vehicle; for heart rate (EKG): over 1 h at the 6 h time-point
Experimental: Mice were treated i.p. with compounds 16-8 and 16-19 (10 mg/kg). Hepatic and renal integrity were analyzed by alanine amino-transferase- and creatinine assays (Sigma), both relying on measurement of absorbance at λ = 570 nm in 96-well micro-titerplates. 8 technical replicates per animal were performed.
For heart rate assessment in mice treated with 16-8 and 16-19, animals were fitted with two electrodes, one to the ear, via clip, one to the rib-cage, using firm adhesive. Heart rate was monitored and analyzed using axoscope and clampfit 9.2 software (Molecular Devices)

[7] = Stability of compound in plasma; type: in vitro ADME; conditions: 4 h incubation in plasma at 37 °C

Structure (SMILES)	IC50 (TRPV4 [1]) [nM]	inhibition of TRPV4-mediated Ca++ influx (TRPV4 [1])	average peak ∆Ca++ concentration (TRPV4 [1]) [nM]	increased potency over GSK205 (TRPV4 [1])	histopathological score for pancreas inflammation [2]	myelo-peroxidase (MPO) [2]	pain behavior (nocifensive behavior, 6 h test period) [2]	pancreatic edema [2]	potency vs GSK205, dose-response of peak ∆Ca++ (TRPV4 [3])	diminishing of pain behavior, delayed phase [4] [%]	pain behavior, delayed (late neural) phase [4]	potency vs GSK205, dose-response of peak ∆Ca++ (TRPV4 [5])	heart rate (EKG) [6]	serum alanine-amino-transferase (ALT) [6]	serum creatinin [6]	stability in plasma [7]
CN(CCc1ccc(Nc2nc(-c3ccccc3)cs2)cc1)Cc1ccccc1 [16-8]	450 ± 50	virtually eliminated Ca^++ influx	6	approximately 10 fold	significantly reduced; also recorded: significant reduction	significantly reduced	virtually eliminated; also recorded: significantly reduced	virtually eliminated	significantly more potent than GSK205	> 50	significant attenuation; also recorded: significant reduction	significantly increased potency	no and did not detect differences and changes	not significantly elevated	not significantly elevated	–
CCN(CCc1ccc(Nc2nc(-c3ccccc3)cs2)cc1)Cc1ccccc1 [16-19]	–	virtually eliminated Ca^++ influx	8	~8 fold	–	–	–	–	–	–	robust effect; also recorded: significant reduction	–	no and did not detect differences and changes	not significantly elevated	not significantly elevated	stable; also recorded: no loss of detectable compound
